Experimental data: patent US20020168436A1, “Decursinol or derivative thereof as analgesic agent” (priority 2000, published 2002)

Columns and labels:
[1] = test system: mice administered with β-amyloid(1-42); assay: Y-maze test in mice given β-amyloid(1-42) into the cerebral ventricle; format: in vivo, mouse; settings: for alternation behavior (%): compared with the group given β-amyloid(1-42) only
Procedure: (§1) The administration of β-amyloid(1-42) to a mouse was carried out in accordance with the method described by Laursen & Belknap(J. Pharmacol. Methods, 16, 355-357 (1986)). Specifically, 5 μl of phosphate-buffered saline containing 1.85 μg of β-amyloid(1-42) was put in a 50 μl Hamilton syringe fitted with a 26 gauge needle, the tip of the needle was inserted into the bregma of the mouse and then the β-amyloid(1-42) solution was administered thereto. Each mouse of a control group received an equal amount of β-amyloid(42-1) in place of β-amyloid(1-42). A passive avoidance test was carried out at days 1-2 (day 1: training, day 2: test) and a Y-maze test, at days 3-4 (day 3: training, day 4: test) after the administration.
Spontaneous alternation behavior of a mouse was examined by a Y-maze test in accordance with the method described in Starter et al., Psychopharmacology, 94, 491-495 (1988) as follows.
The Y-maze consisted of three arms shaped like Y. A test mouse was placed in one of the arms such that it faced the arm's terminal and allowed to roan freely through the three arms for […]. The number of alternation was determined by counting the number of occasions the mouse passed the three arms consecutively. Spontaneous alternation behavior was determined as the percentage of the alternation number based on the total number of arm entries.
Further, Y-maze tests were carried out employing the above-prepared mice as in Reference Example 3.
Forty 4- to 5-week old mice each weighing 20 to 25 g were divided into four groups of equal number. Decursinol was dissolved in corn oil, mixed with a mouse fodder, and the mice of two groups were provided with the resulting fodder for 4 weeks at a daily dose of 7.5 mg decursinol/kg or 15 mg decursinol/kg. The mice of the other two groups were provided with a normal mouse fodder containing an equal amount of corn oil as above for 4 weeks. Thereafter, the mice of one of the two normal fodder groups were administered, into their cerebral ventricle, with 1.85 μg of β-(42-1) (“control group”) and the mice of the remaining three groups, with β-amyloid(1-42) (Aβ1-42), as in Reference Example 1. Then, a passive avoidance test and a Y-maze test were carried out for each group of mice as in Reference Examples 2 and 3, respectively, and the data attained were averaged for each group.

[2] = test system: choline acetyltransferase (ChAT); assay: Immunohistochemical staining of ChAT in septal nucleus; format: in vivo, mouse; settings: 0.006% (w/v) in drinking water for 4 weeks; 5 days after β-amyloid(1-42); FIG. 9c
Procedure: Three groups of mice were administered with ferulic acid and/or β-amyloid in accordance with the method of (1). 5 days after the administration of β-amyloid, immunohistochemical staining was carried out according to the method of (1) except for employing 1:750 dilution of anti-choline-acetyltransferase (ChAT) antibody (Chemicon) in order to stain ChAT, an enzyme for acetylcholine synthesis, in the septal nucleus wherein acetylcholine neurons are distributed.

[3] = test system: primary mouse cortical culture; assay: β-amyloid(1-42)-induced leakage of lactate dehydrogenase (LDH) from cultured neurons; format: cell-based; settings: 100 μM, 30 minutes before 25 μM β-amyloid(1-42); 24 and 48 hours; compared with β-amyloid(1-42) group; FIG. 10
Procedure: The culture of mouse cerebral neurons was divided into three groups. Neurons of one group received no treatment (control group). […] The degree of damage in neurons was determined by measuring the concentration of lactate dehydrogenase (LDH), which was released from the damaged or disrupted neurons into the culture medium, in accordance with the method of Wie et al. Samples of the culture medium were taken at 24 and 48 hours after the administration of β-amyloid(1-42), respectively, and their LDH concentrations were measured with a microplate reader.

[4] = test system: OX-42; assay: Immunohistochemical staining of OX-42 in pyriform cortex and amygdaloid nucleus; format: in vivo, mouse; settings: 0.006% (w/v) in drinking water for 4 weeks; 1 day after β-amyloid(1-42); compared with β-amyloid(1-42) only; FIGS. 8c and 8f
Procedure: 4- to 5-week old mice each weighing 20 to 25 g was divided into three groups. Ferulic acid was dissolved in water to a concentration of 0.006% (w/v), and the mice of one group were provided with the resulting solution instead of water for 4 weeks. The mice of other two groups were provided with normal drinking water for 4 weeks. Thereafter, the mice of one of two normal drinking water groups were administered, into their cerebral ventricle, with 1.85 μg of β-amyloid(42-1) (“control group”) and the mice of the remaining two groups, with β-amyloid(1-42) (Aβ1-42), as in Reference Example 1.
One day after the administration of β-amyloid, each of the mice was anesthetized with sodium pentobarbital and its abdomen was incised. The mouse was fixed by passing 4% paraformaldehyde through its left ventricle and its brain was excised.
In accordance with the method described in Cho et al., J. Comp. Neurol., 369: 264-276(1996), a section was prepared from the excised brain and immunohistochemical staining was carried out in order to stain […] in the pyriform cortex and the amygdaloid nucleus by employing 1:500 dilution of anti-OX-42 antibody (Halan (Sera-Lab)).

[5] = test system: mice administered with β-amyloid(1-42); assay: Passive avoidance test in mice given β-amyloid(1-42) into the cerebral ventricle; format: in vivo, mouse; settings: for dementia-preventive effect in passive avoidance test: FIGS. 7A and 7B
Procedure: as §1
In order to examine the learning and memory-retention ability of a mouse, a passive avoidance test was carried out in accordance with the method described in Song et al., J. Neurochem., 71, 875-878 (1998), as follows.
A passive avoidance case equipped with a light room and a dark room was prepared, the floor of the dark room being designed to deliver an electrical shock to a test animal. First, a mouse was put in the light room and, upon entering the dark room, it received an electrical shock at 0.25 mA for 1 sec. Twenty-four hours after the training, the mouse was put in the light room again and the time it took to enter the dark room was measured as a passive avoidance time. The maximum time was set at 300 sec., i.e., in case when the mouse took more than 300 sec. to enter the dark room, the passive avoidance time was determined to be 300 sec.
Forty 4- to 5-week old mice each weighing 20 to 25 g were divided into four groups of equal number. The Angelicae gigas Nakai extract prepared in Example 1 was dissolved in water to concentrations of 0.08% (w/v) and 0.1% (w/v), respectively, and the mice of two groups were provided with the resulting solutions instead of water for 4 weeks at a daily dose of 8 ml of the solution/mouse. The mice of the other two groups were provided with normal drinking water for 4 weeks. Thereafter, the mice of one of the two normal drinking water groups were administered into their cerebral ventricle with 1.85 μg of β-amyloid(42-1) (“control group”) and the mice of the remaining three groups, with β-amyloid(1-42) (Aβ1-42), as in Reference Example 1. Then, a passive avoidance test was carried out for each group of mice as in Reference Example 2 and the data attained were averaged for each group.
Fifty 4- to 5-week old mice each weighing 20 to 25 g were divided into five groups by equal number. Ferulic acid was dissolved in water to concentrations of 0.002 % (w/v), 0.004 % (w/v) and 0.006 % (w/v), respectively, and the mice of three groups were provided with the resulting solutions instead of water for 4 weeks at a daily dose of 8 ml of the solution/mouse. The mice of the other two groups were provided with normal drinking water for 4 weeks. Thereafter, the mice of one of two normal drinking water groups were administered into their cerebral ventricle with 1.85 μg of β-(42-1) (“control group”) and the mice of the remaining four groups, with β-amyloid(1-42) (Aβ1-42), as in Reference Example 1. Then, a passive avoidance test was carried out for each group of mice as in Reference Example 2 and the data attained were averaged for each group.
Forty 4- to 5-week old mice each weighing 20 to 25 g were divided into four groups of equal number. […]

| LDH concentration in culture medium [3] | SMILES | number of arm entries (spontaneous movement) ([1]; 0.006% (w/v) for 1 to 4 weeks, FIG. 4B) | alternation behavior (%) ([1]; 0.006% (w/v) for 1 to 4 weeks, FIG. 4A) | ChAT staining [2] | OX-42 staining [4] | decrease in the passive avoidance response time ([5]; 0.002, 0.004 and 0.006% (w/v) in drinking water for 4 weeks before β-amyloid(1-42), FIG. 3A) | passive avoidance response time ([5]; 0.006% (w/v) in drinking water for 1, 2, 3 and 4 weeks, FIG. 3B) | dementia-preventive effect in passive avoidance test ([5]; alone in a low amount: 0.002% or 0.003% (w/v) ferulic acid) | number of arm entries (spontaneous movement) ([1]; 7.5 or 15 mg/kg daily in fodder for 4 weeks, FIG. 6C) | alternation behavior (%) ([1]; 7.5 or 15 mg/kg daily in fodder for 4 weeks, FIG. 6B) | decrease in the passive avoidance response time due to β-amyloid(1-42) ([5]; 7.5 or 15 mg/kg daily in fodder for 4 weeks, FIG. 6A) | dementia-preventive effect in passive avoidance test ([5]; alone in a low amount: 2 mg/kg or 3 mg/kg decursinol) |
| --- | --- | --- | --- | --- | --- | --- | --- | --- | --- | --- | --- | --- |
| much lower | COc1cc(/C=C/C(=O)O)ccc1O [ferulic acid] | nearly the same for all groups | higher and increased in proportion to the period of administration | the decrease was suppressed | much less pronounced | prevented dose-dependently | becomes increasingly higher with the period of administration | no dementia-preventive effect | – | – | – | – |
| – | CC1(C)Oc2cc3oc(=O)ccc3cc2C[C@@H]1O [decursinol] | – | – | – | – | – | – | – | nearly the same for all groups | higher and increased dose-dependently | prevented | no dementia-preventive effect |
